Test results as given in patent US8318491B2, “Method of differentiating hematopoietic stem cells into natural killer cells using YC-1 or IL-21” (Korea Research Institute of Bioscience and Biotechnology, priority 2007, dated 2012).

What was measured:
[1] = test system: NK cells; test: 51Cr release assay of the killing activity of differentiated mature NK cells; type: cell-based, human; conditions: cultured in the presence of IL-15
Protocol: (§1) To investigate the effect on NK cell differentiation of IL-21 known to promote differentiation and increase activity, IL-21 (20 ng/ml, PeproTech, USA) was treated during the process of differentiation from hematopoietic stem cells of cord blood into mature NK cells (mNK) through NK precursor cells (pNK). The cells were cultured in the presence of IL-15, followed by FACS analysis and ^51Cr release assay.
(§2) To investigate the effect on NK cell differentiation of YC-1 [3-(5′-hydroxymethyl-2′-furyl)-1-benzylindazole, formula 1] known as an anticancer agent functioning in suppressing HIF-1α activity to inhibit tumor cell growth, YC-1 (1 uM, Sigma) was treated during the process of differentiation from hematopoietic stem cells of cord blood into mature NK cells (mNK) through NK precursor cells (pNK). The cells were cultured in the presence of IL-15, followed by FACS analysis and ^51Cr release assay.

[2] = test system: hematopoietic stem cells of cord blood / NK precursor cells (pNK); test: FACS analysis of CD56+ NK cell population during differentiation of cord blood hematopoietic stem cells into mature NK cells via NK precursor cells; type: cell-based, human; conditions: for NK cells (FACS analysis): in the presence of IL-15, FIGS. 10 and 11; for CD56+ NK cell population: cultured in the presence of IL-15, vs IL-15 alone
Protocol: Cord blood provided from Department of Obstetric & Gynecology, Konyang University Hospital, Taejon, Korea, for the purpose of study only was diluted in RPMI 1640 (GIBCO-BRL, USA) at the ratio of 2:1. The prepared cord blood was loaded on the upper part of Ficoll-Paque (Sigma, USA), followed by centrifugation ([…], 30 minutes) to separate mononuclear cells (MNC). Erythrocytes were eliminated from the obtained cells and the obtained mononuclear cells were marked with the hematopoietic stem cell marker ‘CD34 microbeads’. Then, CD34+ cells were separated by MS/RS column and MACS (Magnetic Activated Cell Sorter). The purity of the obtained CD34+ hematopoietic stem cells (referred as “HSC cells” hereinafter) was measured by FACS (BD Bioscience, Mountainview, Calif.), which was 92% (FIG. 1).
The HSC cells separated from cord blood in Example 1 were inoculated in a 12-well plate (Falcon, USA) containing the Myelocult complete medium (Stem cell Technology, CA) supplemented with 30 ng/ml of human […] (PeproTech, USA), 50 ng/ml of human Flt3L (FMS-like tyrosine kinase 3 ligand, PeproTech, USA), 5 ng/ml of human IL-7 (PeproTech, USA), and 10^−6 M of […] at the concentration of 1×10^6 cells/well, followed by culture for 14 days in a 37° C., 5% CO2 incubator. Three days later, half of the supernatant was replaced with a fresh medium containing cytokines having the same composition as the above. For the differentiation into mature NK cells (referred as “NK cells” hereinafter), HSC cells were recovered 14 days later and cultured again for 14 days in the presence of human IL-15 (30 ng/ml, PeproTech, USA). Three days later, half of the medium was replaced with a fresh medium containing cytokines having the same composition as the above. (FIG. 2). On the 28th day of culture, the purity of NK cells was measured by using anti-CD56 antibody and the expression of NK cell receptor was measured by flow cytometry (FACS) (FIG. 3).
as §1
as §2, with “The cells were cultured in the presence of IL-15, followed by FACS analysis and ^51Cr release assay.” left out

Compound | killing activity of NK cells ([1]; YC-1 1 uM, E:T 5:1, FIG. 9) | NK cells (FACS analysis) ([2]; YC-1 0.5 uM alone (low concentration)) | CD56+ NK cell population ([2]; YC-1 1 uM treated to pNK, FIGS. 7 and 8) | killing activity of NK cells ([1]; IL-21 20 ng/ml, E:T 2.5:1, FIG. 6) | NK cells (FACS analysis) ([2]; IL-21 10 ng/ml alone (low concentration)) | CD56+ NK cell population ([2]; IL-21 20 ng/ml treated to pNK, FIGS. 4 and 5)
OCc1ccc(-c2nn(Cc3ccccc3)c3ccccc23)o1 [YC-1, 3-(5′-hydroxymethyl-2′-furyl)-1-benzylindazole] | increased | slightly increased | increased | – | – | –
IL-21: cytokine secreted by activated CD4+ T cells; amino acid sequence represented by SEQ. ID. NO: 1 (PeproTech) | – | – | – | increased | slightly increased | increased
